Structures are written as SMILES.

Results on 17 molecules are retold here after patent US20240360113A1, “AMINOARYL-INTEGRIN AGONISTS COMPOUNDS” (Texas Heart Institute, priority 2021, published 2024).

In experiment [1] the target is T1, αLβ2/ICAM-1 (Homo sapiens, UniProt P05107+P20701).
T1 construct: The Jurkat (VCAM-1 assays) and HSB (ICAM-1 assays) cell lines were obtained from American Type Culture Collection; endogenous in cells; host or cells: HSB (ATCC)
The experiment is described as follows: Static cell adhesion assay, HSB cells on ICAM-1 (LFA-1; LAD). Format: cell-based. To be noted: RFU of compound / RFU of THI0349, both at the same concentration. The essentials:
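HSB cells were labeled with calcein-AM for 30 minutes, washed, resuspended in binding buffer (PBS with 2 mM MgCl2, 5 mM EGTA, 50% FBS) and plated at 2×10^5 cells/well in triplicate onto 96-well plates coated overnight at 4° C with ICAM-1 (5 μg/mL in 50 μL TBS) and blocked with 2% BSA. Compounds were tested in 1% DMSO. After 30 minutes at 37° C and three washes, adherent cells were lysed and fluorescence was read; results are compound RFU divided by THI0349 RFU.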

Experiment [2] addresses T2, α4β1/VCAM-1 (Homo sapiens, UniProt P05556+P13612).
T2 construct: The Jurkat (VCAM-1 assays) and HSB (ICAM-1 assays) cell lines were obtained from American Type Culture Collection; endogenous in cells; host or cells: Jurkat (ATCC)
The experiment is described as follows: Static cell adhesion assay, Jurkat cells on VCAM-1 (VLA-4 agonist activity). Format: cell-based. As to conditions: EC50 relative to THI0349 (average 11 uM) run on the same plate; Jurkat cells, 50% FBS. The essentials:
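Calcein-labelled Jurkat cells (2×10^5/well) were added to wells coated with a sub-optimal level of human VCAM-1 (0.5 μg/mL) in PBS, 1 mM MgCl2, 50% FBS with compound in 1% DMSO. After 30 min at 37° C. and washing, adherent-cell fluorescence was read. EC50 was the concentration giving 50% of maximal response.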

T1 sequence (P20701 26-1170): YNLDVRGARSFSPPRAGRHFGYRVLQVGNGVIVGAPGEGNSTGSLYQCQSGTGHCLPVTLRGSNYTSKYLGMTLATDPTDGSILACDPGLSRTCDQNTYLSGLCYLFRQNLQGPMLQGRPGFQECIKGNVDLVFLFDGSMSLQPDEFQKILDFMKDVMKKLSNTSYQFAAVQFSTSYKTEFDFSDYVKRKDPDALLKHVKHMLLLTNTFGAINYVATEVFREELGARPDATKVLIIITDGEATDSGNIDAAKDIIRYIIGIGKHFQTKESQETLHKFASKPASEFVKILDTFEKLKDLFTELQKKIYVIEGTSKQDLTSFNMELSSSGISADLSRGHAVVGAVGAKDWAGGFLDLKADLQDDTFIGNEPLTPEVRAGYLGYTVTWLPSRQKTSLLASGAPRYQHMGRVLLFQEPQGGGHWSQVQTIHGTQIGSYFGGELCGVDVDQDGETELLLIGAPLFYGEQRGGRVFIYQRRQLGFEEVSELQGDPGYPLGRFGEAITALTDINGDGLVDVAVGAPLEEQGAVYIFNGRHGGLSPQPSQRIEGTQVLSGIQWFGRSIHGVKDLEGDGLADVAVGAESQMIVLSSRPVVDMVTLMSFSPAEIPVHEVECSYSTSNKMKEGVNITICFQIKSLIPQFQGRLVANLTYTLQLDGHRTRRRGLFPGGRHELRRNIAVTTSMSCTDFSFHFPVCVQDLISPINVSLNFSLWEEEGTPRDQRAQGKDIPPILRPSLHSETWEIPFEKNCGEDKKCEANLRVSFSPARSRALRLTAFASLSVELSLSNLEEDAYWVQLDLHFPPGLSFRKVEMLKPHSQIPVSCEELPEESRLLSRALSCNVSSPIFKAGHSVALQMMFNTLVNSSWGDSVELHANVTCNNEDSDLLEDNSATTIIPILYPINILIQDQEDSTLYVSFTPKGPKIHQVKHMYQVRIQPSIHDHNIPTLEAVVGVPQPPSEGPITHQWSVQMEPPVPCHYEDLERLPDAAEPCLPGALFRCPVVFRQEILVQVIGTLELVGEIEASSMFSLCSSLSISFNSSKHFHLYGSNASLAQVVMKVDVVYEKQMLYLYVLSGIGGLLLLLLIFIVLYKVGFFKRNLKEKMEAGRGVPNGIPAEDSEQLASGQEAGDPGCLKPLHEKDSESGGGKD
T1 sequence (P05107 23-769): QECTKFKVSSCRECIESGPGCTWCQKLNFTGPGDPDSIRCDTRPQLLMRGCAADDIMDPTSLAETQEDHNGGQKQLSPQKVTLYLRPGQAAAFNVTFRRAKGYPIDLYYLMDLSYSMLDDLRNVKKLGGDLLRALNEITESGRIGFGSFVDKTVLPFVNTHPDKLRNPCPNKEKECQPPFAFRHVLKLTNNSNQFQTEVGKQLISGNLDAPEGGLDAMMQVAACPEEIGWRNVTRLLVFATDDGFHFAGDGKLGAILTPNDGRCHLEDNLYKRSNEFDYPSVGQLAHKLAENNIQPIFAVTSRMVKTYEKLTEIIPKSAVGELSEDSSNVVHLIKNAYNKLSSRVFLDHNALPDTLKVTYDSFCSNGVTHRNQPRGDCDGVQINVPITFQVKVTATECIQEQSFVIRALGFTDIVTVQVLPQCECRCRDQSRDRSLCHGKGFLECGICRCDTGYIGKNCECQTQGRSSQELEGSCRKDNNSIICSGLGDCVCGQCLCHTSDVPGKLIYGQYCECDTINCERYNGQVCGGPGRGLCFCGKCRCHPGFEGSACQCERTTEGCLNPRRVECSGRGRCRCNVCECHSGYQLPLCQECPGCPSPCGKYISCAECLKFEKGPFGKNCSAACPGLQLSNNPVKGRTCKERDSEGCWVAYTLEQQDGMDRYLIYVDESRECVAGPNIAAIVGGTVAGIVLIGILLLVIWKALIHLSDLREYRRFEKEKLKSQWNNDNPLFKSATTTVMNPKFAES
T2 sequence (P13612 34-1032): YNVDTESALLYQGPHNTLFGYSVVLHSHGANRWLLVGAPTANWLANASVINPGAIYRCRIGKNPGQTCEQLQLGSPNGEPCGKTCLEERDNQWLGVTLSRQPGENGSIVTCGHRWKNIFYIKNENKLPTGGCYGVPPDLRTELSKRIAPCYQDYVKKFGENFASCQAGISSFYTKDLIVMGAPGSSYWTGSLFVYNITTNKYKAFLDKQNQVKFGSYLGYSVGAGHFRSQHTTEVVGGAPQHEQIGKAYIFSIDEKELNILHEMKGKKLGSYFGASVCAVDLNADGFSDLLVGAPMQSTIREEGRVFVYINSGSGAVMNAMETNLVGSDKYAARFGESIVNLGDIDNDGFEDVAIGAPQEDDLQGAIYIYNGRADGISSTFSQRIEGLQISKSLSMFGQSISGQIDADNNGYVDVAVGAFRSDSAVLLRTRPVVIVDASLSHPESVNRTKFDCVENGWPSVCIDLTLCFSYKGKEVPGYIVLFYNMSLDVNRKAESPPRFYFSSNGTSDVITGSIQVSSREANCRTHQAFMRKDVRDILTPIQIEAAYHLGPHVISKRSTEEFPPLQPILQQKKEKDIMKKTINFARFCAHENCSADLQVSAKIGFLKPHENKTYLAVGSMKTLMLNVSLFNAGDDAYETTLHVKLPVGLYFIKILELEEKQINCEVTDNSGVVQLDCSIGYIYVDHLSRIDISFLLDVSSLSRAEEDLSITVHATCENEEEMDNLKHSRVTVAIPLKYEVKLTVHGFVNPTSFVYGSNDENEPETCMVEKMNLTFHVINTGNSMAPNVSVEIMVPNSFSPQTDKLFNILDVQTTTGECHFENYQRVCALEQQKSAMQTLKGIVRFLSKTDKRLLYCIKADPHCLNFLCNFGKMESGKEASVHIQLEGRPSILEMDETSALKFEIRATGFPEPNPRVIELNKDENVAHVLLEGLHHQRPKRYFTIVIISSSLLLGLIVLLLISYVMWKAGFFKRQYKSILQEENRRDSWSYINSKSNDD
T2 sequence (P05556 21-798): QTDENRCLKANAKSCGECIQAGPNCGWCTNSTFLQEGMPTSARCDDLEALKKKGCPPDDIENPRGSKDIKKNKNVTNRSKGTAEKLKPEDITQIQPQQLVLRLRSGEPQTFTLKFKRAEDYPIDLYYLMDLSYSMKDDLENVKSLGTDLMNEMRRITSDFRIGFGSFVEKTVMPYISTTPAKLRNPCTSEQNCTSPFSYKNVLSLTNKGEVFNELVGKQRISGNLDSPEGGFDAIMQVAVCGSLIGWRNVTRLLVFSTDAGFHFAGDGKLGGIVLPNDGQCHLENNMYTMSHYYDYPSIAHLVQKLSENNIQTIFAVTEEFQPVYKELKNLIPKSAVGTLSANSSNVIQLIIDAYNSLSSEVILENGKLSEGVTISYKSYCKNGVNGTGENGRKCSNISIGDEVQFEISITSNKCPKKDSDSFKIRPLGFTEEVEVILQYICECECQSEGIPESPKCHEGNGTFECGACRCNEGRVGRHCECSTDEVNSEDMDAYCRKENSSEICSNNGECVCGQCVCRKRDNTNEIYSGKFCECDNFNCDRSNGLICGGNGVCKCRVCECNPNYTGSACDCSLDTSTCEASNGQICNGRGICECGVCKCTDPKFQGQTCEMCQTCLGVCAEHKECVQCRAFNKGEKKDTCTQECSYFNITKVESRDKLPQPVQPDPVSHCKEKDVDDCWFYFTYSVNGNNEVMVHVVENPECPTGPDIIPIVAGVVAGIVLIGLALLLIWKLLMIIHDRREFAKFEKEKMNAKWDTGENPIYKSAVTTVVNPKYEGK

For the molecule `CCOC(=O)c1csc(N(Cc2cccc(OC)c2)Cc2cccc(-n3ccnc3)c2)n1` [Compound 118, ethyl 2-((3-(1H-imidazol-1-yl)benzyl)(3-methoxybenzyl)amino)thiazole-4-carboxylate], the “LAD Raw Fluorescence Units against LFA-1; Dose 3 µM; Ratio of raw counts Compound/THI0349” value in experiment [1] is 0.15. Besides, the “Group against VCAM” value in experiment [2] is reported as “II (Group II is more than twice that of THI0349 but less than five times THI0349's EC50)”.

Turning to `COCCOc1cccc(CN(Cc2cccc(OC)c2)c2nc(CN3CCOCC3)cs2)c1` [Compound 74, N-(3-methoxybenzyl)-N-(3-(2-methoxyethoxy)benzyl)-4-(morpholinomethyl)thiazol-2-amine], in experiment [1], the “LAD Raw Fluorescence Units against LFA-1; Dose 3 µM; Ratio of raw counts Compound/THI0349” value is 0.3. Further, the “Group against VCAM” value in experiment [2] is recorded as “I (Group I maintains at least the same potency or better up to more than twice that of the EC50 of THI0349 ran on the same plate)”.

For `COc1cccc(CN(Cc2cccc(OC)c2)c2nc(COCCOCCOCc3ccccc3C)cs2)c1` [Compound 54, N,N-bis(3-methoxybenzyl)-4-((2-(2-((2-methylbenzyl)oxy)ethoxy)ethoxy)methyl)thiazol-2-amine], the “LAD Raw Fluorescence Units against LFA-1; Dose 3 µM; Ratio of raw counts Compound/THI0349” value in experiment [1] came out at 1.8. The “Group against VCAM” value in experiment [2] is “I (Group I maintains at least the same potency or better up to more than twice that of the EC50 of THI0349 ran on the same plate)”.

Take `COc1cccc(CN(Cc2cccc(OC)c2)c2nc(COCCOCCOCc3ccccc3)cs2)c1` [Compound 53, 4-((2-(2-(benzyloxy)ethoxy)ethoxy)methyl)-N,N-bis(3-methoxybenzyl)thiazol-2-amine]: the “LAD Raw Fluorescence Units against LFA-1; Dose 3 µM; Ratio of raw counts Compound/THI0349” value in experiment [1] was 1.06. Besides, the “Group against VCAM” value in experiment [2] is listed as “I (Group I maintains at least the same potency or better up to more than twice that of the EC50 of THI0349 ran on the same plate)”.

As to `COc1cccc(CN(Cc2cccc(OC)c2)c2nc(CN3CCCCC3)cs2)c1` [Compound 68, N,N-bis(3-methoxybenzyl)-4-(piperidin-1-ylmethyl)thiazol-2-amine], the “LAD Raw Fluorescence Units against LFA-1; Dose 3 µM; Ratio of raw counts Compound/THI0349” value in experiment [1] is 1.6. Further, in experiment [2], the “Group against VCAM” value is “II (Group II is more than twice that of THI0349 but less than five times THI0349's EC50)”.

As to `COc1cccc(CN(Cc2cccc(OC)c2)c2nc(CCN3CCOCC3)cs2)c1` [Compound 84, N,N-bis(3-methoxybenzyl)-4-(2-morpholinoethyl)thiazol-2-amine], the “LAD Raw Fluorescence Units against LFA-1; Dose 3 µM; Ratio of raw counts Compound/THI0349” value in experiment [1] was found to be 0.14. Further, the “Group against VCAM” value in experiment [2] is listed as “I (Group I maintains at least the same potency or better up to more than twice that of the EC50 of THI0349 ran on the same plate)”.

`COc1cccc(CN(Cc2cccc(OC)c2)c2nc(COCCN3CCN(C)CC3)cs2)c1` [Compound 66, N,N-bis(3-methoxybenzyl)-4-((2-(4-methylpiperazin-1-yl)ethoxy)methyl)thiazol-2-amine]: in experiment [1], the “LAD Raw Fluorescence Units against LFA-1; Dose 3 µM; Ratio of raw counts Compound/THI0349” value amounted to 0.27. Also, the “Group against VCAM” value in experiment [2] was “II (Group II is more than twice that of THI0349 but less than five times THI0349's EC50)”.

Consider `CCOC(=O)c1ccc(N(Cc2cccc(OC)c2)Cc2cccc(OC)c2)nc1` [Compound 95, ethyl 6-(bis(3-methoxybenzyl)amino)nicotinate], for which the “LAD Raw Fluorescence Units against LFA-1; Dose 3 µM; Ratio of raw counts Compound/THI0349” value in experiment [1] is reported as 0.09. Moreover, in experiment [2], the “Group against VCAM” value is reported as “III (Group III more than five times the EC50 of THI0349)”.

Regarding `COc1cccc(CN(Cc2cccc(OC)c2)c2nc(COCCOCCN3CCCCC3)cs2)c1` [Compound 62, N,N-bis(3-methoxybenzyl)-4-((2-(2-(piperidin-1-yl)ethoxy)ethoxy)methyl)thiazol-2-amine], the “LAD Raw Fluorescence Units against LFA-1; Dose 3 µM; Ratio of raw counts Compound/THI0349” value in experiment [1] is on record as 0.37. The “Group against VCAM” value in experiment [2] is “I (Group I maintains at least the same potency or better up to more than twice that of the EC50 of THI0349 ran on the same plate)”.

As for `COc1ccc(CCCOCc2coc(N(Cc3cccs3)Cc3cccs3)n2)cc1` [Compound 24, 4-((3-(4-methoxyphenyl)propoxy)methyl)-N,N-bis(thiophen-2-ylmethyl)oxazol-2-amine], in experiment [1], the “LAD Raw Fluorescence Units against LFA-1; Dose 3 µM; Ratio of raw counts Compound/THI0349” value came out at 0.85. Also, the “Group against VCAM” value in experiment [2] is given as “II (Group II is more than twice that of THI0349 but less than five times THI0349's EC50)”.

`COc1ccc(CCCNC(=O)c2cnc(N(Cc3cccc(OC)c3)Cc3cccc(OC)c3)o2)cc1` [Compound 22, 2-(bis(3-methoxybenzyl)amino)-N-(3-(4-methoxyphenyl)propyl)oxazole-5-carboxamide]: the “LAD Raw Fluorescence Units against LFA-1; Dose 3 µM; Ratio of raw counts Compound/THI0349” value in experiment [1] came to 0.69. Further, the “Group against VCAM” value in experiment [2] is “I (Group I maintains at least the same potency or better up to more than twice that of the EC50 of THI0349 ran on the same plate)”.

`COc1cccc(COc2ccc(N(Cc3cccc(OC)c3)Cc3cccc(OC)c3)cc2)c1` [Compound 91, N,N-bis(3-methoxybenzyl)-4-((3-methoxybenzyl)oxy)aniline]: the “LAD Raw Fluorescence Units against LFA-1; Dose 3 µM; Ratio of raw counts Compound/THI0349” value in experiment [1] was found to be 0.09. Also, the “Group against VCAM” value in experiment [2] was “III (Group III more than five times the EC50 of THI0349)”.

Regarding `COc1cccc(CN(Cc2cccc(OC)c2)c2nc(COCCOCCN3CCN(C)CC3)cs2)c1` [Compound 63, N,N-bis(3-methoxybenzyl)-4-((2-(2-(4-methylpiperazin-1-yl)ethoxy)ethoxy)methyl)thiazol-2-amine], the “LAD Raw Fluorescence Units against LFA-1; Dose 3 µM; Ratio of raw counts Compound/THI0349” value in experiment [1] is 0.5. For the same molecule, the “Group against VCAM” value in experiment [2] is given as “III (Group III more than five times the EC50 of THI0349)”.

With `CCOC(=O)c1coc(N(Cc2cccc(OC)c2)Cc2cccc(OC)c2)n1` [Compound 14, ethyl 2-(bis(3-methoxybenzyl)amino)oxazole-4-carboxylate], the “LAD Raw Fluorescence Units against LFA-1; Dose 3 µM; Ratio of raw counts Compound/THI0349” value in experiment [1] stood at 1.0. Also, the “Group against VCAM” value in experiment [2] is “I (Group I maintains at least the same potency or better up to more than twice that of the EC50 of THI0349 ran on the same plate)”.

`COc1cccc(CN(Cc2cccc(OC)c2)c2nc(CN3CCN(C)CC3)cs2)c1` [Compound 69, N,N-bis(3-methoxybenzyl)-4-((4-methylpiperazin-1-yl)methyl)thiazol-2-amine]: the “LAD Raw Fluorescence Units against LFA-1; Dose 3 µM; Ratio of raw counts Compound/THI0349” value in experiment [1] is 0.33. Further, the “Group against VCAM” value in experiment [2] was “II (Group II is more than twice that of THI0349 but less than five times THI0349's EC50)”.

`COc1cccc(CN(Cc2cccc(OC)c2)c2nc(COCCOCCOc3cccc(C#N)c3)cs2)c1` [Compound 45, 3-(2-(2-((2-(bis(3-methoxybenzyl)amino)thiazol-4-yl)methoxy)ethoxy)ethoxy)benzonitrile]: in experiment [1], the “LAD Raw Fluorescence Units against LFA-1; Dose 3 µM; Ratio of raw counts Compound/THI0349” value is listed as 0.76. Moreover, the “Group against VCAM” value in experiment [2] is on record as “I (Group I maintains at least the same potency or better up to more than twice that of the EC50 of THI0349 ran on the same plate)”.

Regarding `COc1cccc(COc2cccc(N(Cc3cccc(OC)c3)Cc3cccc(OC)c3)c2)c1` [Compound 92, N,N-bis(3-methoxybenzyl)-3-((3-methoxybenzyl)oxy)aniline], in experiment [1], the “LAD Raw Fluorescence Units against LFA-1; Dose 3 µM; Ratio of raw counts Compound/THI0349” value was 0.6. In addition, in experiment [2], the “Group against VCAM” value is “III (Group III more than five times the EC50 of THI0349)”.
